Results on 10 compounds are retold here after patent publication US7687054B2, “Biocompatible compounds for sustained release pharmaceutical drug delivery systems” (3M Innovative Properties Company, priority 1997, dated 2010).

Structures can show the parent of a compound that is named as a salt. Where two headings read alike, the source gives them in different places.

The nature of data set [1]: Glass transition temperature (Tg) by modulated DSC. The format is physicochemical. The settings on record: PLA/Drug mole/mole ratio 0 (drug alone). As to the method: (§1) Thermal properties (glass transition, melting, and degradation points; Tg, Tm, Tdeg) were determined utilizing a modulated differential scanning calorimeter (DSC) TA Instruments, New Castle, Del. A linear heating rate of 5° C./minute was applied, with a perturbation amplitude of ±1° C. every 60 seconds. […] The glass transition temperatures (Tg) reported were taken at the midpoint in the change in heat capacity over the step transition, and were evaluated using the reversing signal curve.
It will also be recognized that other biologically acceptable molecules (e.g., excipients) which are not the active agent, may be added to improve the matrix material's properties.

A short description of data set [2]: Degradation temperature by modulated DSC (thermal stability). As to the method:
as §1
The salts were prepared by mixing suitable solutions (e.g., acetone, chloroform, methanol) of the drug and PLA in the desired ratio, followed by evaporation and extensive drying under high vacuum to remove all traces of solvent. […] Bioavailability frequently correlates with the water solubility of the drug-complex. The water solubility of the PHAs is dependent on the molecular weight and the nature of the end groups.
The molecular weight of the acylated polymer necessary to provide an insoluble salt is dependent both on the nature of the drug and the end-group used. It will be recognized that the characteristics (MW, distribution, chemical nature, endgroups, etc.) of the polymer counter-ion will be important to the ultimate pharmacokinetics of the drug.

Data set [3] concerns antigen (ovalalbumin) challenged guinea pigs. Description: Guinea pig early phase anaphylactic response test (pulmonary dynamic compliance). Format: in vivo, male Hartley guinea pigs. The settings on record: inhalation. As for the experimental part:
Pat. […] Pat. […] Typical inhalation exposure systems were comprised of an aerosol generator, e.g., an MDI, a 150 ml aerosol expansion chamber, and a trachea cannula. Each guinea pig received 4 actuations containing 32 ug drug/actuation. The guinea pigs were antigen (ovalalbumin) challenged at varied times and pulmonary dynamic compliance was tested using a Buxco pulmonary mechanics analyzer (Buxco Electronics, Sharon Conn.) according to the method of Amdur and Mead (The American Journal of Physiology, Vol. 92, pp. 364-368 (1958)).

The test system of data set [4] is tumor necrosis factor (TNF). Description: TNF levels in lung lavage and serum after inhalation of IMQ MDI formulations. Format: in vivo, mouse. Particulars: mice. As to the method:
Typically, the animals were exposed to 20 actuations per minute for 25 minutes of an MDI generated 2 micron average MMAD aerosol. Lung lavage and bleeding of the exposed mice, were performed by standard methods known to those skilled in the art and tumor necrosis factor (TNF) analyses were performed by an ELISA method specific for TNF in the mouse (Genzyme Immunobiologicals, Cambridge, Mass.). TNF is a marker for this drug's activity. Pulmonary therapy application of IMQ prefers drug activity localized in the lung. Therefore, it was desirable to maintain high levels of drug in the lung and minimize systemic drug. However, this formulation and method could also clearly be used to provide long term release of IMQ or analogous compounds for systemic applications. The lavage numbers are measurements of TNF levels in the lung while the serum levels measure systemic TNF levels.

[5] abbreviates: PLA/Drug molar ratio 0 (drug alone).

In the case of `CC(C)(C)NCC(O)c1ccc(O)c(CO)c1` (stereo not drawn) [Albuterol base], in data set [1], the Tg was 48.9 °C.

With `[H]/N=C(\N/C(=N/[H])NCCCCCCNC(=N)NC(=N)Nc1ccc(Cl)cc1)Nc1ccc(Cl)cc1` [Chlorhexidine base], the Tg in data set [1] was determined as 38.5 °C. Also, the “Degradation Temperature” value in data set [2] (setting [5]) is over 225 °C.

As to `CCC(CC)N(O)C(=O)Nc1ccccc1` [Example 5LO], the “Percent Inhibition of Bronchoconstriction” value in data set [3] (challenge 15 minutes after dosing) came out at 67%; in data set [3] (challenge 30 minutes after dosing), 48%; in data set [3] (challenge 60 minutes after dosing), 4%.

Consider `Cc1nc2c(N)nc3ccccc3c2n1CC(C)(C)O` [IMQ alone], for which the “TNF level, Lavage” value in data set [4] (0 hours after dosing) worked out at 40 pg/mL; in data set [4] (1 hour after dosing), 105 pg/mL; in data set [4] (2 hours after dosing), 213 pg/mL; in data set [4] (4 hours after dosing), 144 pg/mL. Moreover, the “TNF level, Serum” value in data set [4] (0 hours after dosing) worked out at 13 pg/mL; in data set [4] (1 hour after dosing), 6 pg/mL; in data set [4] (2 hours after dosing), 193 pg/mL; in data set [4] (4 hours after dosing), 577 pg/mL.

On to `CCN(CC)CC(=O)Nc1c(C)cccc1C` [Lidocaine HCl], for which, in data set [1] (HCl), the Tg worked out at 30.7 °C.

For the compound `CCN(CC)CC(=O)Nc1c(C)cccc1C` [Lidocaine], the Tg entry in data set [1] was “none”. The “Degradation Temperature” value in data set [2] (setting [5]) came to 159 °C.

As to `CN(C)[C@@H]1C(O)=C(C(N)=O)C(=O)[C@@]2(O)C(O)=C3C(=O)c4c(O)cccc4[C@@](C)(O)[C@H]3C[C@@H]12` [Tetracycline HCl], in data set [1], the Tg worked out at 50.5 °C.

Take `CN(C)[C@@H]1C(O)=C(C(N)=O)C(=O)[C@@]2(O)C(O)=C3C(=O)c4c(O)cccc4[C@@](C)(O)[C@H]3C[C@@H]12` [Tetracycline]: the “Degradation Temperature” value in data set [2] (setting [5]) was determined as 179 °C.

In the case of Albuterol sulfate, in data set [1], the Tg worked out at 49 °C.

On to acetyl-poly (L-lactic acid) [Example 7], for which the “Degradation Temperature” value in data set [2] was over 225 °C.
